US20100297073A1, “HETEROCYCLIC ANTIVIRAL COMPOUNDS” (priority 2009, published 2010)
pIC50: −log10 of the molar value.

Experiments:
[1] = biological target: T1, HCV polymerase (NS5B570n-Con1) (Hepatitis C virus genotype 1b, UniProt Q9WMX2); assay: biochemical; set-up: species or system HCV Con1 strain
T1 construct: contains a 21 amino acid deletion at the C-terminus relative to the full-length HCV polymerase; 6-histidine (N); made in house; host or cells: E. coli BL21(DE) pLysS, plasmid pET17b
Protocol: HCV NS5B RNA Polymerase Activity
The enzymatic activity of HCV polymerase (NS5B570n-Con1) was measured as the incorporation of radiolabeled nucleotide monophosphates into acid insoluble RNA products. Unincorporated radiolabeled substrate was removed by filtration and scintillant was added to the washed and dried filter plate containing radiolabeled RNA product. The amount of RNA product generated by NS5B570-Con1 at the end of the reaction was directly proportional to the amount of light emitted by the scintillant.
The N-terminal 6-histidine tagged HCV polymerase, derived from HCV Con1 strain, genotype 1b (NS5B570n-Con1) contains a 21 amino acid deletion at the C-terminus relative to the full-length HCV polymerase and was purified from E. coli strain BL21(DE) pLysS. The construct, containing the coding sequence of HCV NS5B Con1 (GenBank accession number AJ242654) was inserted into the plasmid construct pET17b, downstream of a T7 promoter expression cassette and transformed into E. coli. A single colony was grown overnight as a starter culture and later used inoculate 10 L of LB media supplemented with 100 μg/mL ampicillin at 37° C. Protein expression was induced by the addition of 0.25 mM isopropyl-β-D-thiogalactopyranoside (IPTG) when optical density at […] of the culture was between 0.6 and 0.8 and cells were harvested after 16 to 18 h at 30° C. NS5B570n-Con1 was purified to homogeneity using a three-step protocol including subsequent column chromatography on Ni-NTA, SP-Sepharose HP and Superdex 75 resins.
Data was analyzed in Excel® (Microsoft®) and ActivityBase® (idbs®). The reaction in the absence of enzyme was used to determine the background signal, which was subtracted from the enzymatic reactions. […] All data was expressed as a percentage of the positive control.
the data where “Y” corresponds to the relative enzyme activity (in %), “% Min” is the residual relative activity at saturating compound concentration, “% Max” is the relative maximum enzymatic activity, “X” corresponds to the compound concentration, and “S” is the Hill coefficient (or slope).

[2] = test system: genotype 1b HCV replicon in Huh7 cell line 2209-23; assay: HCV replicon assay (Renilla luciferase reporter); type: cell-based; conditions: Hepatitis C virus, Huh-7, 72 h; 2209-23 cells, three days incubation, luciferase readout
[3] = in vitro; conditions: human
[4] = test system: HCV; conditions: cited from earlier work

SMILES	melting point	pIC50 [1]	other results
COc1ccc(-c2cc(-c3cc4ccc(NS(C)(=O)=O)cc4c(=O)o3)c(OC)c(C(C)(C)C)c2)c(=O)[nH]1	231 to 233 °C		
COc1c(-c2cc3ccc(NS(C)(=O)=O)cc3c(=O)[nH]2)cc(-c2ccc[nH]c2=O)cc1C(C)(C)C [Compound I-11, N-{3-[3-tert-Butyl-2-methoxy-5-(2-oxo-1,2-dihydro-pyridin-3-yl)-phenyl]-1-oxo-1,2-dihydro-isoquinolin-7-yl}-methanesulfonamide]	252 to 254 °C	8.40	pIC50 [2]: 9.00; CC50 [3]: 42600 nM
COc1c(-c2cc3ccc(NS(C)(=O)=O)cc3c(=O)o2)cc(-c2c[nH]c(=O)[nH]c2=O)cc1C(C)(C)C [Compound I-14, N-{3-[3-tert-Butyl-5-(2,4-dioxo-1,2,3,4-tetrahydro-pyrimidin-5-yl)-2-methoxy-phenyl]-1-oxo-1H-isochromen-7-yl}-methanesulfonamide]	> 300 °C	9.00	
COc1c(C2Cc3ccc(NS(C)(=O)=O)cc3CO2)cc(-c2ccc[nH]c2=O)cc1C(C)(C)C (centres unmarked) [Compound I-10, N-{3-[3-tert-Butyl-2-methoxy-5-(2-oxo-1,2-dihydro-pyridin-3-yl)-phenyl]-isochroman-7-yl}-methanesulfonamide]	170 to 175 °C	9.00	
COc1c(-c2cc(=O)c3cc(NS(C)(=O)=O)ccc3o2)cc(-c2ccc[nH]c2=O)cc1C(C)(C)C [Compound I-1, N-{2-[3-tert-Butyl-2-methoxy-5-(2-oxo-1,2-dihydro-pyridin-3-yl)-phenyl]-4-oxo-4H-chromen-6-yl}-methanesulfonamide]	> 300 °C	8.52	
COc1c(C2=CCc3cc(NS(C)(=O)=O)ccc3O2)cc(-c2ccc[nH]c2=O)cc1C(C)(C)C [Compound I-2, N-{2-[3-tert-Butyl-2-methoxy-5-(2-oxo-1,2-dihydro-pyridin-3-yl)-phenyl]-4H-chromen-6-yl}-methanesulfonamide]		7.85	
COc1c(-c2cc3ccc(NS(C)(=O)=O)cc3c(=O)o2)cc(-c2cc(F)c[nH]c2=O)cc1C(C)(C)C [Compound I-6, N-{3-[3-tert-Butyl-5-(5-fluoro-2-oxo-1,2-dihydro-pyridin-3-yl)-2-methoxy-phenyl]-1-oxo-1H-isochromen-7-yl}-methanesulfonamide]	295 to 297 °C	8.52	
COc1c(-c2cc3ccccc3c(=O)[nH]2)cc(-c2ccc[nH]c2=O)cc1C(C)(C)C	138 to 140 °C		
COc1c(-c2cc3ccccc3c(=O)o2)cc(-c2ccc[nH]c2=O)cc1C(C)(C)C [Compound I-7, 3-[3-tert-Butyl-4-methoxy-5-(1-oxo-1H-isochromen-3-yl)-phenyl]-1H-pyridin-2-one]	253 to 255 °C	8.70	
COc1c(C2Cc3ccc(NS(C)(=O)=O)cc3C(=O)O2)cc(-c2ccc[nH]c2=O)cc1C(C)(C)C (centres unmarked) [Compound I-9, N-{3-[3-tert-Butyl-2-methoxy-5-(2-oxo-1,2-dihydro-pyridin-3-yl)-phenyl]-1-oxo-isochroman-7-yl}-methanesulfonamide]		8.22	
NC(=O)c1ncn([C@@H]2O[C@H](CO)[C@@H](O)[C@H]2O)n1 [Ribavirin, 1-((2R,3R,4S,5R)-3,4-Dihydroxy-5-hydroxymethyl-tetrahydro-furan-2-yl)-1H-[1,2,4]triazole-3-carboxylic acid amide]			effect on serum levels of HCV-RNA ([4]; monotherapy / sole treatment): does not lower serum levels of HCV-RNA; patients with serum amino transferase levels reduced to normal ([4]; monotherapy): 40%
COc1c(-c2cc3ccc(NS(C)(=O)=O)cc3c(=O)o2)cc(-c2cc(F)c[nH]c2=O)cc1C1(C(F)F)CC1 [Compound I-15]		9.70	
COc1c(C2CCc3cc(NS(C)(=O)=O)ccc3O2)cc(-c2ccc[nH]c2=O)cc1C(C)(C)C (centres unmarked) [Compound I-3, N-{2-[3-tert-Butyl-2-methoxy-5-(2-oxo-1,2-dihydro-pyridin-3-yl)-phenyl]-chroman-6-yl}-methanesulfonamide]		9.00	
COc1c(-c2nc3ccc(NS(C)(=O)=O)cc3c(=O)[nH]2)cc(-c2ccc[nH]c2=O)cc1C(C)(C)C [Compound I-13, N-{2-[3-tert-Butyl-2-methoxy-5-(2-oxo-1,2-dihydro-pyridin-3-yl)-phenyl]-4-oxo-3,4-dihydro-quinazolin-6-yl}-methanesulfonamide]	228 to 230 °C	8.05	
CC(C)(C)c1cc(-c2cc3ccc(NS(C)(=O)=O)cc3c(=O)o2)cc(-c2ccc[nH]c2=O)c1 [Compound I-5, N-{3-[3-tert-Butyl-5-(2-oxo-1,2-dihydro-pyridin-3-yl)-phenyl]-1-oxo-1H-isochromen-7-yl}-methanesulfonamide]	> 300 °C	8.05	
